Experimental data published in US20100227873A1, “NITROGEN-CONTAINING HETEROCYCLIC COMPOUNDS AND METHODS OF USE THEREOF” (Schering Corporation, priority 2005, published 2010).

Molecular target: recombinant human nicotinic acid receptor (NAR) (Homo sapiens, UniProt Q8TDS4)
Test: Nicotinic acid receptor assay: inhibition of forskolin-stimulated cAMP accumulation (MesoScale Discovery cAMP detection kit) in CHO cells
Type: cell-based
Conditions: CHO cells expressing recombinant human NAR, activity class, read-out: NA EC50 camp
Protocol: The nicotinic acid receptor agonist activity of the inventive compounds was determined by following the inhibition of forskolin-stimulated cAMP accumulation in cells using the MesoScale Discovery cAMP detection kit following the manufacturer's protocol. Briefly, Chinese Hamster Ovary (CHO) cells expressing recombinant human nicotinic acid receptor (NAR) were harvested enzymatically, washed 1× in phosphate buffered saline (PBS) and resuspended in PBS containing 0.5 mM IBMX at 3×10^6 cells/mL. Ten μL of cell suspension was added to each well of a 384-well plate which contained 10 μL of test compounds. Test compounds were diluted with PBS containing 6 μM of forskolin. Plates were incubated for 30 minutes at room temperature after the addition of cells. Lysis buffer containing cAMP-Tag was added to each well (10 μL/well) as per the manufacturer's protocol. Plates were then incubated from 45 minutes to overnight. Prior to reading, 10 μt of read buffer was added to each well, and the plate was read in a Sector 6000 plate imager. The signal was converted to cAMP concentration using a standard curve run on each plate. Compound EC50 values were determined from concentration gradients of test compounds.

recombinant human nicotinic acid receptor (NAR), sequence (Q8TDS4 whole entry): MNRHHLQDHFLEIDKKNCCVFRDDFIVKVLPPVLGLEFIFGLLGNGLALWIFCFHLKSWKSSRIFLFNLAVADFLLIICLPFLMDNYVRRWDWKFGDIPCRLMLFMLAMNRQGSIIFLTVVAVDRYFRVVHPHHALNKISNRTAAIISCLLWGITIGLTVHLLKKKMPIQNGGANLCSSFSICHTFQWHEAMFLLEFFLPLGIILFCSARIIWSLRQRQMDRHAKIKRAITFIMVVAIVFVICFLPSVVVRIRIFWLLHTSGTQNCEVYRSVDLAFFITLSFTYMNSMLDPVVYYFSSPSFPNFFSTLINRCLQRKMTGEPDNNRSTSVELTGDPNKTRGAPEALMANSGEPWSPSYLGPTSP

EC50: 100 to 1000 nM
SMILES: O=c1[nH]c(=O)c2c(Cc3cccc(Br)c3)cc(=O)oc2[nH]1 [Compound 238]
